Measurements: PubChem BioAssay AID192 (DTP/NCI, 2004)
Values joined by “and” are separate entries in the source; they are usually repeats but may differ in a detail not shown here. Equal values may be shown once. Toxic doses and inconclusive results are not listed. How the source made its calls: active means survival T/C of 150% or more; inactive means T/C below 125% in these data.

System: BDF1 mice, B16 melanoma ip, median survival T/C
Experiment: NCI In Vivo Anticancer Drug Screen. Data for tumor model B16 Melanoma (intraperitoneal) in B6D2F1 (BDF1) mice
Settings: endpoint: median survival time, higher = longer survival
In short: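 The ratio T/C compares compound-treated mice with vehicle-treated controls, using survival or tumor size as the endpoint in a transplantable tumor model.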

[1] = dose: 100.0 mg/kg/injection, schedule: Q01DX009 (ip), vehicle: saline with Tween-80
[2] = dose: 100.0 mg/kg/injection, schedule: Q01DX009 (ip), vehicle: Klucel (hydroxypropylcellulose) (HPC)
[3] = dose: 200.0 mg/kg/injection, schedule: Q01DX009 (ip), vehicle: Klucel (hydroxypropylcellulose) (HPC)
[4] = dose: 400.0 mg/kg/injection, schedule: Q01DX009 (ip), vehicle: Klucel (hydroxypropylcellulose) (HPC)
[5] = dose: 25.0 mg/kg/injection, schedule: Q04DX003 (ip), vehicle: saline with Tween-80
[6] = dose: 50.0 mg/kg/injection, schedule: Q01DX009 (ip), vehicle: saline
[7] = dose: 100.0 mg/kg/injection, schedule: Q01DX009 (ip), vehicle: saline
[8] = dose: 200.0 mg/kg/injection, schedule: Q01DX009 (ip), vehicle: saline
[9] = dose: 12.5 mg/kg/injection, schedule: Q01DX009 (ip), vehicle: saline with Tween-80
[10] = dose: 25.0 mg/kg/injection, schedule: Q01DX009 (ip), vehicle: saline with Tween-80
[11] = dose: 50.0 mg/kg/injection, schedule: Q01DX009 (ip), vehicle: Klucel (hydroxypropylcellulose) (HPC)
[12] = dose: 50.0 mg/kg/injection, schedule: Q01DX009 (ip), vehicle: saline with Tween-80
[13] = dose: 25.0 mg/kg/injection, schedule: Q01DX009 (ip), vehicle: Klucel (hydroxypropylcellulose) (HPC)
[14] = dose: 400.0 mg/kg/injection, schedule: Q01DX009 (ip), vehicle: saline
[15] = dose: 50.0 mg/kg/injection, schedule: Q04DX003 (ip), vehicle: saline with Tween-80
[16] = dose: 100.0 mg/kg/injection, schedule: Q04DX003 (ip), vehicle: saline with Tween-80
[17] = dose: 6.25 mg/kg/injection, schedule: Q01DX009 (ip), vehicle: saline with Tween-80
[18] = dose: 200.0 mg/kg/injection, schedule: Q04DX003 (ip), vehicle: saline with Tween-80

Measured: T/C

CCOC(=O)c1ccc(OC(=O)Nc2ccccc2OC)cc1
inactive: [1] 95 % of control | dose: 200.0 mg/kg/injection, schedule: Q01DX009 (ip), vehicle: saline with Tween-80 88 % of control

CCN=C=NCCCN(C)C
inactive: dose: 10.0 mg/kg/injection, schedule: Q01DX009 (ip), vehicle: saline 92 % of control | dose: 20.0 mg/kg/injection, schedule: Q01DX009 (ip), vehicle: saline 92 % of control | dose: 40.0 mg/kg/injection, schedule: Q01DX009 (ip), vehicle: saline 97 % of control | dose: 80.0 mg/kg/injection, schedule: Q01DX009 (ip), vehicle: saline 94 % of control

CCC(=O)N(C)[C@@H](C)C(=O)O[C@H]1CC(=O)N(C)c2cc(cc(OC)c2Cl)C/C(C)=C/C=C[C@@H](OC)[C@@]2(O)C[C@H](OC(=O)N2)[C@@H](C)[C@@H]2O[C@@]12C
inactive: dose: 30.0 micrograms/kg/injection, schedule: Q01DX009 (ip), vehicle: saline + alcohol 103 % of control
active: dose: 2.5 micrograms/kg/injection, schedule: Q01DX009 (ip), vehicle: saline + alcohol 156 % of control | dose: 3.8 micrograms/kg/injection, schedule: Q01DX009 (ip), vehicle: saline + alcohol 171 % of control | dose: 5.0 micrograms/kg/injection, schedule: Q01DX009 (ip), vehicle: saline + alcohol 167 % of control and 171 % of control | dose: 7.5 micrograms/kg/injection, schedule: Q01DX009 (ip), vehicle: saline + alcohol 191 % of control | dose: 10.0 micrograms/kg/injection, schedule: Q01DX009 (ip), vehicle: saline + alcohol 168 % of control and 181 % of control | dose: 15.0 micrograms/kg/injection, schedule: Q01DX009 (ip), vehicle: saline + alcohol 151 % of control and 196 % of control

Cc1ccc(Nc2ccc([N+](=O)[O-])cc2[N+](=O)[O-])c(C)c1
inactive: [2] 93 % of control | [3] 98 % of control | [4] 97 % of control

NC(=O)Cn1cnc2c(=S)nc[nH]c21
inactive: dose: 12.5 mg/kg/injection, schedule: Q04DX003 (ip), vehicle: saline with Tween-80 95 % of control | [5] 100 % of control

CCOC(=O)C(C(=O)OCC)=C(C)C
inactive: dose: 25.0 mg/kg/injection, schedule: Q01DX009 (ip), vehicle: saline 123 % of control | [6] 113 % of control | [7] 110 % of control | [8] 94 % of control

CC1(C)N=C(N)N=C(N)N1c1ccc2ccccc2c1
inactive: [9] 90 % of control | dose: 22.0 mg/kg/injection, schedule: Q01DX009 (ip), vehicle: Klucel (hydroxypropylcellulose) (HPC) 87 % of control | [10] 94 % of control | dose: 33.0 mg/kg/injection, schedule: Q01DX009 (ip), vehicle: Klucel (hydroxypropylcellulose) (HPC) 91 % of control | [11] 119 % of control | [12] 98 % of control

CCC/C(C)=C(/C#N)CC
inactive: [13] 105 % of control | [11] 103 % of control | [2] 109 % of control

C[n+]1c2cc(N)ccc2cc2ccc(N)cc21
inactive: dose: 1.56 mg/kg/injection, schedule: Q01DX009 (ip), vehicle: saline 107 % of control | dose: 3.13 mg/kg/injection, schedule: Q01DX009 (ip), vehicle: saline 117 % of control | dose: 6.25 mg/kg/injection, schedule: Q01DX009 (ip), vehicle: saline 115 % of control | dose: 12.5 mg/kg/injection, schedule: Q01DX009 (ip), vehicle: saline 111 % of control

Cc1ccc(N=Nc2c(O)ccc3ccccc23)c(C)c1
active: [4] 150 % of control
inactive: [11] 92 % of control

CC(=O)CC(=O)Oc1ccccc1OC(C)=O
inactive: [11] 94 % of control | [2] 100 % of control

CCN(CCCCO)CCc1c[nH]c2ccc(OC)cc12
inactive: dose: 9.3 mg/kg/injection, schedule: Q01DX009 (ip), vehicle: saline 105 % of control | dose: 18.75 mg/kg/injection, schedule: Q01DX009 (ip), vehicle: saline 90 % of control | dose: 37.5 mg/kg/injection, schedule: Q01DX009 (ip), vehicle: saline 97 % of control | dose: 75.0 mg/kg/injection, schedule: Q01DX009 (ip), vehicle: saline 110 % of control

C=C(C)C(=O)Nc1c(C)cccc1C
inactive: [11] 102 % of control | [2] 107 % of control | [3] 108 % of control

Cc1c(Cl)cccc1NC(=O)Oc1cc(Cl)c(Cl)cc1Cl
inactive: dose: 6.25 mg/kg/injection, schedule: Q01DX009 (ip), vehicle: Klucel (hydroxypropylcellulose) (HPC) 96 % of control | dose: 12.5 mg/kg/injection, schedule: Q01DX009 (ip), vehicle: Klucel (hydroxypropylcellulose) (HPC) 98 % of control | [13] 89 % of control and 98 % of control

N#Cc1ncc(C(Cl)Cl)nc1Cl
inactive: dose: 3.13 mg/kg/injection, schedule: Q01DX009 (ip), vehicle: saline + alcohol 96 % of control | dose: 6.25 mg/kg/injection, schedule: Q01DX009 (ip), vehicle: saline + alcohol 91 % of control | dose: 12.5 mg/kg/injection, schedule: Q01DX009 (ip), vehicle: saline + alcohol 93 % of control | dose: 25.0 mg/kg/injection, schedule: Q01DX009 (ip), vehicle: saline + alcohol 89 % of control | [10] 94 % of control

Clc1ccc(Br)c(Cl)c1
inactive: [2] 93 % of control | [3] 93 % of control | [4] 93 % of control

O=C(O)CP(=O)(O)O
active: [8] 154 % of control | [14] 194 % of control | dose: 800.0 mg/kg/injection, schedule: Q01DX009 (ip), vehicle: saline 211 % of control
inactive: dose: 4.0 mg/kg/injection, schedule: Q01DX009 (ip), vehicle: saline 109 % of control | dose: 8.0 mg/kg/injection, schedule: Q01DX009 (ip), vehicle: saline 104 % of control | dose: 16.0 mg/kg/injection, schedule: Q01DX009 (ip), vehicle: saline 102 % of control | dose: 32.0 mg/kg/injection, schedule: Q01DX009 (ip), vehicle: saline 101 % of control | [6] 103 % of control | dose: 64.0 mg/kg/injection, schedule: Q01DX009 (ip), vehicle: saline 102 % of control | [7] 120 % of control

CC(C)(C)OC(=O)N1CCCC1C(=O)Oc1ccc([N+](=O)[O-])cc1 (configuration not stated)
inactive: [5] 94 % of control | [15] 109 % of control | [16] 104 % of control

S=P(NCCS)(N1CC1)N1CC1
inactive: [17] 95 % of control | [9] 96 % of control | [10] 98 % of control | [16] 105 % of control | [18] 97 % of control | dose: 400.0 mg/kg/injection, schedule: Q04DX003 (ip), vehicle: saline with Tween-80 95 % of control

CCOC(=O)C(C)Nc1ccccc1 (configuration not stated)
inactive: [2] 102 % of control | [3] 91 % of control | dose: 300.0 mg/kg/injection, schedule: Q01DX009 (ip), vehicle: Klucel (hydroxypropylcellulose) (HPC) 121 % of control

NCCSC(C[N+](=O)[O-])c1ccc2c(c1)OCO2 (configuration not stated)
inactive: [15] 102 % of control | [16] 105 % of control | [18] 105 % of control

O=C1C(NC(=O)C2CCCCC2)=C(N2CC2)C(=O)C(NC(=O)C2CCCCC2)=C1N1CC1
inactive: [13] 109 % of control | [11] 102 % of control

CCCCCCCCCCCCc1ccc(CS)cc1
inactive: [7] 92 % of control | [8] 89 % of control

C=CCNC(=S)NCC=C
inactive: [2] 97 % of control | [3] 92 % of control | [4] 102 % of control

Cc1cc(=O)n2c3c(c4c(cc13)c(CN(C)C)cc(=O)n4C)OC2
inactive: [17] 103 % of control | [9] 101 % of control | [10] 113 % of control | [12] 117 % of control

C/C(=N/NC(N)=S)c1ccc2ccccc2c1
inactive: dose: 6.0 mg/kg/injection, schedule: Q01DX009 (ip), vehicle: saline with Tween-80 111 % of control | dose: 12.0 mg/kg/injection, schedule: Q01DX009 (ip), vehicle: saline with Tween-80 105 % of control

CC(C)(C)OC(=O)N1CCCC1C(=O)N1CCCC1C(=O)Oc1ccccc1 (configuration not stated)
inactive: [7] 121 % of control | [8] 110 % of control | [14] 114 % of control

CCCCCCCCCCCCNCCC#N
inactive: [17] 100 % of control | [9] 92 % of control | [10] 91 % of control and 100 % of control | [12] 89 % of control

Cc1c[n+]2ccccc2n1C
inactive: [10] 99 % of control and 100 % of control | [12] 94 % of control and 96 % of control | [1] 93 % of control and 94 % of control

O=C(/C=C/c1ccc2c(c1)OCO2)c1ccc2c(c1)OCO2
inactive: [2] 100 % of control | [3] 110 % of control | [4] 117 % of control

NC(=O)c1ccccc1NC(=O)c1ccccc1Cl
inactive: [2] 100 % of control | [3] 97 % of control | [4] 102 % of control

O=[N+]([O-])c1cc(F)ccc1O
inactive: [10] 100 % of control
